Data on 50 compounds can be found in ChEMBL document CHEMBL1143632, “Ligand-based prediction of active conformation by 3D-QSAR flexibility descriptors and their application in 3+3D-QSAR models” (J Med Chem, 2005).

For one experiment, the species on record is Rattus norvegicus. Kind of experiment: Antinidatory effect was determined in rat. The format is functional. Set-up: unit not given here.
Experiment [1] addresses T1, Mu-type opioid receptor (Rattus norvegicus, UniProt P33535). Kind of experiment: Inhibition of DAMGO (Tyr-[D-Ala]-Gly-[NMe-Phe]-Gly-ol) binding to rat brain mu opioid receptor.
Experiment [2] concerns the target T1, Mu-type opioid receptor. Kind of experiment: Inhibition of DAMGO (Tyr-[D-Ala]-Gly-[NMe-Phe]-Gly-ol) binding to rat brain opioid receptor.
Experiment [3] deals with Mu-type opioid receptor (Mus musculus, UniProt P42866). Kind of experiment: Inhibition of DAMGO (Tyr-[D-Ala]-Gly-[NMe-Phe]-Gly-ol) binding to mouse brain mu opioid receptor.
Mu-type opioid receptor (Mus musculus, UniProt P42866), sequence (P42866 whole entry): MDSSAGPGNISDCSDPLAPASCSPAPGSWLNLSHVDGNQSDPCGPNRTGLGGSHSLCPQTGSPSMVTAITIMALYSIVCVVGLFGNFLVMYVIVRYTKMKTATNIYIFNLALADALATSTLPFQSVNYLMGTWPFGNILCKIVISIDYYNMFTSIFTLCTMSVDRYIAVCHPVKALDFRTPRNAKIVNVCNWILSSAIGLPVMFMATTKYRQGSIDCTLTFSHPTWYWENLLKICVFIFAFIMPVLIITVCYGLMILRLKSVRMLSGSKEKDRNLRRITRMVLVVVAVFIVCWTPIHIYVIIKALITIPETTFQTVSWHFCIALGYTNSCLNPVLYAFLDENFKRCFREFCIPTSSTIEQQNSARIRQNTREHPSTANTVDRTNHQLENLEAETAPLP
Experiment [4] deals with T1, Mu-type opioid receptor. In words: Inhibition of DAMGO (Tyr-[D-Ala]-Gly-[NMe-Phe]-Gly-ol) binding torat brain mu opioid receptor.

pKi: −log10 of the molar value. Where a SMILES comes first, the peptide text is derived from it. [ ]: non-standard residue; d: D form. Dmt = Cc1cc(O)cc(C)c1C[C@H](N)C(=O)O

T1 sequence (P33535 whole entry): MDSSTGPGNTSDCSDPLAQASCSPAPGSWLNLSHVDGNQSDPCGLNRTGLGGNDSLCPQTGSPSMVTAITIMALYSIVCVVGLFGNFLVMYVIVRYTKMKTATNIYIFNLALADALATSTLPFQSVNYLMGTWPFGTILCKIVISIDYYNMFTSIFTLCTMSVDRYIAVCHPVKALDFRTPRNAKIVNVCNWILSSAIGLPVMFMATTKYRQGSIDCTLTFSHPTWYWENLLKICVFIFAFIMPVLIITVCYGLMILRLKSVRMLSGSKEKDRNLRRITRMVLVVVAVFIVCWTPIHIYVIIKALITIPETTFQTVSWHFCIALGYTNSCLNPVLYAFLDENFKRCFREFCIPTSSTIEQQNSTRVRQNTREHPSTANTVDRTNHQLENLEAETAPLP

Regarding `O=C(O)CC/C=C\CC[C@@H]1[C@@H](/C=C/[C@@H](O)CCc2ccccc2)[C@H](O)C[C@@H]1O`, in the experiment filed under Rattus norvegicus, the “Log ED50” value is 2.301. With `Cc1cc(O)cc(C)c1C[C@H](N)C(=O)N1CCC[C@H]1C(=O)N[C@@H](Cc1ccccc1)C(=O)N[C@@H](Cc1c[nH]c2ccccc12)C(N)=O` (H-[Dmt]PFW-NH2), the pKi – broadly, −log10 of the Ki, conventionally taken in molar units – on Mu-type opioid receptor [1] is 10.85.

`C[C@@H](c1ccccc1)[C@H](NC(=O)[C@H](Cc1ccccc1)NC(=O)[C@@H]1CCCN1C(=O)[C@@H](N)Cc1ccc(O)cc1)C(N)=O` gave a pKi on Mu-type opioid receptor [2] of 9.10. `O=C(O)/C=C/CCCC[C@@H]1[C@@H](/C=C/[C@@H](O)COc2cccc(C(F)(F)F)c2)[C@H](O)C[C@@H]1O`: in the experiment filed under Rattus norvegicus, the “Log ED50” value stood at 0.602. Regarding `O=C(O)C/C=C/C=C/C[C@@H]1[C@@H](/C=C/[C@@H](O)COc2ccccc2)[C@H](O)C[C@@H]1O`, the “Log ED50” value in the experiment listed under Rattus norvegicus is 1.699. The same measure, in the same setting: the figure for `O=C(O)/C=C\CCCC[C@@H]1[C@@H](/C=C/[C@@H](O)COc2cccc(C(F)(F)F)c2)[C@H](O)C[C@@H]1O` is 0.482.

Take `NC(=O)[C@@H]1CCCN1C(=O)[C@H](Cc1ccccc1)NC(=O)[C@@H]1CCCN1C(=O)[C@@H](N)Cc1ccc(O)cc1` [MORPHICEPTIN] (H-YPFP-NH2): on Mu-type opioid receptor [1], the pKi was 7.10. `NC(=O)[C@H](Cc1ccccc1)NC(=O)[C@H](Cc1ccccc1)NC(=O)[C@@H]1Cc2ccccc2[C@@H]1NC(=O)[C@@H](N)Cc1ccc(O)cc1` gave a negative-log Ki (pKi) at Mu-type opioid receptor [3] of 6.00. For the compound `O=C(O)C/C=C/C=C\C[C@@H]1[C@@H](/C=C/[C@@H](O)COc2ccccc2)[C@H](O)C[C@@H]1O`, the “Log ED50” value in the experiment filed under Rattus norvegicus is on record as 0. For `CCCOC[C@H](O)/C=C/[C@@H]1[C@@H](C/C=C\CCCC(=O)O)[C@@H](O)C[C@H]1O`, in the experiment listed under Rattus norvegicus, the “Log ED50” value was 0.398.

For the compound `O=C(O)/C=C/C/C=C\C[C@@H]1[C@@H](/C=C/[C@@H](O)COc2cccc(Cl)c2)[C@H](O)C[C@@H]1O`, the “Log ED50” value in the experiment listed under Rattus norvegicus amounted to 2.301.

Turning to `O=C(O)CCC/C=C\C[C@@H]1[C@@H](/C=C/[C@@H](O)C#Cc2cccs2)[C@H](O)C[C@@H]1O`, the “Log ED50” value in the experiment filed under Rattus norvegicus turned out to be 0.602. As for `C[C@@H](c1ccccc1)[C@@H](NC(=O)[C@H](Cc1ccccc1)NC(=O)[C@@H]1CCCN1C(=O)[C@@H](N)Cc1ccc(O)cc1)C(N)=O`, the pKi at Mu-type opioid receptor [2] was 6.97. As for `O=C(O)CCC/C=C\C[C@@H]1[C@@H](/C=C/[C@@H](O)C#Cc2ccccc2)[C@H](O)C[C@@H]1O`, in the experiment listed under Rattus norvegicus, the “Log ED50” value came to 1.699. Regarding `COc1cccc(C#C[C@H](O)/C=C/[C@@H]2[C@@H](CCCCCCC(=O)O)[C@@H](O)C[C@H]2O)c1`, the “Log ED50” value in the experiment listed under Rattus norvegicus was 2. On to `O=C(O)/C=C/C=C/C=C/[C@@H]1[C@@H](/C=C/[C@@H](O)COc2ccccc2)[C@H](O)C[C@@H]1O`, for which the “Log ED50” value in the experiment listed under Rattus norvegicus came out at 0.699.

With `CCCCOC[C@H](O)/C=C/[C@@H]1[C@@H](C/C=C\CCCC(=O)O)[C@@H](O)C[C@H]1O`, in the experiment filed under Rattus norvegicus, the “Log ED50” value is listed as 1. In the case of `Cc1cc(O)cc(C)c1C[C@H](N)C(=O)N1CCC[C@H]1C(=O)N[C@@H](Cc1ccccc1)C(=O)N[C@H](C(N)=O)[C@@H](C)c1ccccc1`, on Mu-type opioid receptor [1], the negative logarithm of the Ki (pKi) is 9.46.

`NC(=O)[C@H](Cc1ccccc1)NC(=O)[C@H]1Cc2ccccc2[C@H]1NC(=O)[C@@H]1CCCN1C(=O)[C@@H](N)Cc1ccc(O)cc1` gave a pKi on Mu-type opioid receptor [3] of 6.89. `COCCCCC[C@H](O)/C=C/[C@@H]1[C@@H](C/C=C\CCCC(=O)O)[C@@H](O)C[C@H]1O`: in the experiment filed under Rattus norvegicus, the “Log ED50” value was found to be 0.398. With `CCCC(C)(C)C[C@H](O)/C=C/[C@@H]1[C@@H](C/C=C\CCCC(=O)O)[C@@H](O)C[C@H]1O`, in the experiment filed under Rattus norvegicus, the “Log ED50” value is 0.279. Same read-out and setting: the figure for `O=C(O)/C=C/C=C/CC[C@@H]1[C@@H](/C=C/[C@@H](O)COc2cccc(Cl)c2)[C@H](O)C[C@@H]1O` is 0.777. Take `CCCCCOC[C@H](O)/C=C/[C@@H]1[C@@H](C/C=C\CCCC(=O)O)[C@@H](O)C[C@H]1O`: the “Log ED50” value in the experiment listed under Rattus norvegicus is given as 1. As to `CCCCCCOC[C@H](O)/C=C/[C@@H]1[C@@H](C/C=C\CCCC(=O)O)[C@@H](O)C[C@H]1O`, in the experiment filed under Rattus norvegicus, the “Log ED50” value was found to be 0.699.

In the case of `O=C(O)C/C=C/C=C\C[C@@H]1[C@@H](/C=C/[C@@H](O)COc2cccc(Cl)c2)[C@H](O)C[C@@H]1O`, the “Log ED50” value in the experiment filed under Rattus norvegicus is on record as 2.886. Consider `O=C(O)CCC/C=C/C[C@@H]1[C@@H](/C=C/[C@@H](O)C2CC2c2ccccc2)[C@H](O)C[C@@H]1O` (stereo not given in full), for which, in the experiment filed under Rattus norvegicus, the “Log ED50” value was 1.398. For the compound `O=C(O)/C=C/C/C=C\C[C@@H]1[C@@H](/C=C/[C@@H](O)COc2cccc(C(F)(F)F)c2)[C@H](O)C[C@@H]1O`, the “Log ED50” value in the experiment filed under Rattus norvegicus is recorded as 2.

Turning to `O=C(O)/C=C/C/C=C\C[C@@H]1[C@@H](/C=C/[C@@H](O)COc2ccccc2)[C@H](O)C[C@@H]1O`, in the experiment listed under Rattus norvegicus, the “Log ED50” value is recorded as 2.481. For `O=C(O)CCC/C=C\C[C@@H]1[C@@H](/C=C/[C@@H](O)c2ccc(C(F)(F)F)cc2)[C@H](O)C[C@@H]1O`, in the experiment filed under Rattus norvegicus, the “Log ED50” value is given as 1.699. At Mu-type opioid receptor [4], `C[C@H](c1ccccc1)[C@@H](NC(=O)[C@H](Cc1ccccc1)NC(=O)[C@@H]1CCCN1C(=O)[C@@H](N)Cc1ccc(O)cc1)C(N)=O` had a pKi of 7.34. Regarding `CCCCC(C)(C)[C@H](O)/C=C/[C@@H]1[C@@H](C/C=C\CCCC(=O)O)[C@@H](O)C[C@H]1O`, the “Log ED50” value in the experiment listed under Rattus norvegicus stood at 0.081. Regarding `O=C(O)/C=C/C/C=C\C[C@@H]1[C@@H](/C=C/[C@@H](O)COc2ccc(Cl)cc2)[C@H](O)C[C@@H]1O`, the “Log ED50” value in the experiment listed under Rattus norvegicus amounted to 2.

Turning to `O=C(O)CCC/C=C\C[C@@H]1[C@@H](/C=C/[C@@H](O)/C=C/c2ccccc2)[C@H](O)C[C@@H]1O`, the “Log ED50” value in the experiment filed under Rattus norvegicus is on record as -0.602. On Mu-type opioid receptor [1], `C[C@@H](NC(=O)[C@@H](N)Cc1ccc(O)cc1)C(=O)N[C@@H](Cc1ccccc1)C(=O)NC(Cc1ccccc1)C(N)=O` (single isomer, unassigned) gave a pKi of 9.51. On to `O=C(O)CCC/C=C\C[C@@H]1[C@@H](/C=C/[C@@H](O)COc2ccc(F)cc2)[C@H](O)C[C@@H]1O`, for which, in the experiment listed under Rattus norvegicus, the “Log ED50” value came to 2.301. Consider `O=C(O)CCC/C=C\C[C@@H]1[C@@H](/C=C/[C@@H](O)C#CC2CCCCC2)[C@H](O)C[C@@H]1O`, for which the “Log ED50” value in the experiment listed under Rattus norvegicus was determined as 1.959. For `CCOCCCC[C@H](O)/C=C/[C@@H]1[C@@H](C/C=C\CCCC(=O)O)[C@@H](O)C[C@H]1O`, in the experiment filed under Rattus norvegicus, the “Log ED50” value was 0.699. For the compound `O=C(O)CCC/C=C\C[C@@H]1[C@@H](/C=C/[C@@H](O)C#Cc2ccco2)[C@H](O)C[C@@H]1O`, the “Log ED50” value in the experiment listed under Rattus norvegicus turned out to be 0. `NC(=O)[C@H](Cc1ccccc1)NC(=O)[C@H](Cc1ccccc1)NC(=O)[C@H]1Cc2ccccc2[C@H]1NC(=O)[C@@H](N)Cc1ccc(O)cc1` showed a negative-log Ki (pKi) at Mu-type opioid receptor [3] of 6.62. For `O=C(O)/C=C/C/C=C/C[C@@H]1[C@@H](/C=C/[C@@H](O)COc2cccc(Cl)c2)[C@H](O)C[C@@H]1O`, the “Log ED50” value in the experiment filed under Rattus norvegicus is on record as 2.

The compound `NC(=O)[C@H](Cc1ccccc1)NC(=O)[C@@H]1Cc2ccccc2[C@@H]1NC(=O)[C@@H]1CCCN1C(=O)[C@@H](N)Cc1ccc(O)cc1` gave a pKi on Mu-type opioid receptor [3] of 6.53. In turn, `Cc1cc(O)cc(C)c1C[C@H](N)C(=O)N1CCC[C@H]1C(=O)N[C@@H](Cc1ccccc1)C(=O)N[C@@H](Cc1ccccc1)C(N)=O` showed a pKi at Mu-type opioid receptor [1] of 9.68. In the case of `CCCCCCC[C@H](O)/C=C/[C@@H]1[C@@H](C/C=C\CCCC(=O)O)[C@@H](O)C[C@H]1O`, the “Log ED50” value in the experiment listed under Rattus norvegicus is on record as 0.669. On the same count and under the same terms, the figure for `CCC(C)(C)CC[C@H](O)/C=C/[C@@H]1[C@@H](C/C=C\CCCC(=O)O)[C@@H](O)C[C@H]1O` is 0.664. In turn, `NC(=O)[C@H](Cc1c[nH]c2ccccc12)NC(=O)[C@H](Cc1ccccc1)NC(=O)[C@@H]1CCCN1C(=O)[C@@H](N)Cc1ccc(O)cc1` (H-YPFW-NH2) had a pKi on Mu-type opioid receptor [1] of 8.38. In turn, `C[C@H](c1ccccc1)[C@H](NC(=O)[C@H](Cc1ccccc1)NC(=O)[C@@H]1CCCN1C(=O)[C@@H](N)Cc1ccc(O)cc1)C(N)=O` had a pKi at Mu-type opioid receptor [2] of 7.58. As to `CCCOCCC[C@H](O)/C=C/[C@@H]1[C@@H](C/C=C\CCCC(=O)O)[C@@H](O)C[C@H]1O`, the “Log ED50” value in the experiment filed under Rattus norvegicus was -0.602. `NC(=O)C(Cc1ccccc1)NC(=O)[C@H](Cc1ccccc1)NC(=O)[C@H]1Cc2ccccc2CN1C(=O)[C@@H](N)Cc1ccc(O)cc1` (single isomer, unassigned) had a pKi at Mu-type opioid receptor [1] of 6.78.

With `O=C(O)/C=C/C=C/C=C/[C@@H]1[C@@H](/C=C/[C@@H](O)COc2cccc(Cl)c2)[C@H](O)C[C@@H]1O`, the “Log ED50” value in the experiment listed under Rattus norvegicus is 0.699. Turning to `CCCCOCC[C@H](O)/C=C/[C@@H]1[C@@H](C/C=C\CCCC(=O)O)[C@@H](O)C[C@H]1O`, in the experiment filed under Rattus norvegicus, the “Log ED50” value is given as -0.301.
